Results reported in patent publication US10201532B2, “Compounds and their use” (ALLECRA THERAPEUTICS GMBH, priority 2010, dated 2019).

Columns and labels:
[1] = test system: KPC-2 producing K. pneumoniae (ATCC BAA-1705); test: Synergistic broth micro-dilution MIC (checkerboard); assay type: cell-based, Klebsiella pneumoniae; details: for MIC of Imipenem in combination with BLI: ATCC BAA-1705
[2] = test system: K. pneumoniae UMM3 (KPC2); test: Synergistic broth micro-dilution MIC; assay type: cell-based, Klebsiella pneumoniae; details: BLI at 4 μg/mL
[3] = test system: E. cloacae 01 MGH 049 (KPC2, AmpC); test: Synergistic broth micro-dilution MIC; assay type: cell-based; details: BLI at 4 μg/mL
E. coli Ecoli233 (KPC3) = test: Synergistic broth micro-dilution MIC; assay type: cell-based, Escherichia coli
[4] = test system: K. pneumoniae NCTC 13438 (KPC3); test: Synergistic broth micro-dilution MIC; assay type: cell-based, Klebsiella pneumoniae; details: BLI at 4 μg/mL
E. coli BAA-201 (TEM-3) = test: MIC of Piperacillin with inhibitor, ESBL isolates; assay type: cell-based
E. coli BAA-197 (TEM-12) = test: MIC of Piperacillin with inhibitor, ESBL isolates; assay type: cell-based, Escherichia coli
E. coli BAA-198 (TEM-26) = test: MIC of Piperacillin with inhibitor, ESBL isolates; assay type: cell-based, Escherichia coli
[5] = test system: P. mirabilis BAA-663 (TEM-89); test: MIC of Piperacillin with inhibitor, ESBL isolates; assay type: cell-based
E. coli BAA-199 (SHV-3) = test: MIC of Piperacillin with inhibitor, ESBL isolates; assay type: cell-based, Escherichia coli
E. coli BAA-200 (SHV-4) = test: MIC of Piperacillin with inhibitor, ESBL isolates; assay type: cell-based, Escherichia coli
[6] = test system: K. pneumoniae 700603 (SHV-18); test: MIC of Piperacillin with inhibitor, ESBL isolates; assay type: cell-based, Klebsiella pneumoniae
[7] = test system: KPC2 K. pneumoniae ATCC BAA 1705; test: Mice systemic infection model; assay type: in vivo; details: Klebsiella pneumoniae, BAA1705; mice, sub-cutaneous; read-out: ED50 of Doripenem alone
Description: Female Swiss Albino mice, weighing 18-22 g were used for all studies. For each dose group, 5 or 6 mice were included. Study protocols were reviewed and approved by Institutional Animal Ethical Committee, Orchid Research Laboratories Limited. Mice were housed in individually ventilated cages provided with food and water ad libitum, throughout the study period. From overnight culture in Brain-Heart Infusion agar medium, challenge inoculum with required bacterial density was prepared in normal saline containing Hog gastric mucin. In studies involved with doripenem, washed bacterial cells was used. Each mouse was infected […] inoculum by intra-peritoneal injection.
Infected mice were dosed sub-cutaneously, with drug preparations at three different time points post-infection.
Imipenem with BLI combinations: Increasing concentrations of Imipenem as single agent or in combination with fixed concentration of BLIs were used to dose infected mice, sub-cutaneously. In this experiment Imipenem was always administered along with cilastatin. Doripenem with BLI combinations: Increasing concentrations of doripenem as single agent or in combination with fixed concentration of BLIs were used to dose infected mice, sub-cutaneously.
Survival of the treated mice were monitored twice a day, up to 7 days post-infection. Efficacy dose 50 (ED50) was calculated by Reed and Muench method (Reed, L. J.; Muench, H. “A simple method of estimating fifty percent endpoints”. The American Journal of Hygiene, 1938, 27: 493-497.).

[8] = test system: KPC2 K. pneumoniae ATCC BAA 1705; test: Neutropenic mice thigh infection model (human adapted model); assay type: in vivo; details: Doripenem 70 mg/kg fractionated over 5.5 h; end point 8 h
Description: Female Swiss Albino mice weighing 24-30 g were used for all studies. Study protocols were reviewed and approved by Institutional Animal Ethical Committee, Orchid Research Laboratories Limited. Mice were rendered neutropenic by intra-peritoneal cyclophosphamide injections. Log phase culture in brain heart infusion broth was injected in to mice thighs. Imipenem or Doripenen alone or in combination were administered sub-cutaneously in decreasing fractionated doses every 15 minutes over the period of 5.5 h (Flückiger, U. et al. “Integration of pharmacokinetics and pharmacodynamics of Imipenem in a human-adapted mouse model’. Antimicrobial Agents and Chemother, 1991, 35(9): 1905-1910). The Compound-1 or tazobactam was administered sub-cutaneously as bolus dose at the start of dosing. Efficacy end point was 6 h in Imipenem studies and 8 h in Doripenen studies.
Three experiments were carried out where Doripenen alone or in combination with compound-1 or tazobactam (two experiments) were evaluated. Doripenem 70 mg/kg was administered in fractionated doses over the period of 5.5 h (Fluckiger, U. et al. “Integration of pharmacokinetics and pharmacodynamics of Imipenem in a human-adapted mouse model’. Antimicrobial Agents and Chemother., 1991, 35(9): 1905-1910). Compound-1 or tazobactam was administered as bolus dose at initiation of therapy. Efficacy end point was 8 h after initiation of therapy.

C[C@]1(Cn2ccnc2)[C@H](C(=O)O)N2C(=O)C[C@H]2S1(=O)=O [Compound-M, (2S,3S,5R)-3-(imidazol-1-ylmethyl)-3-methyl-4,4,7-trioxo-4-thia-1-aza-bicyclo[3.2.0]heptane-2-carboxylic acid]
4 µg/mL: MIC of Piperacillin with inhibitor (E. coli BAA-201 (TEM-3); inhibitor at 1 μg/mL) | MIC of Piperacillin with inhibitor (E. coli BAA-201 (TEM-3); inhibitor at 2 μg/mL) | MIC of Piperacillin with inhibitor (E. coli BAA-201 (TEM-3); inhibitor at 4 μg/mL) | MIC of Piperacillin with inhibitor (E. coli BAA-197 (TEM-12); inhibitor at 1 μg/mL) | MIC of Piperacillin with inhibitor (E. coli BAA-197 (TEM-12); inhibitor at 4 μg/mL) | MIC of Piperacillin with inhibitor (E. coli BAA-198 (TEM-26); inhibitor at 1 μg/mL) | MIC of Piperacillin with inhibitor (E. coli BAA-198 (TEM-26); inhibitor at 2 μg/mL) | MIC of Piperacillin with inhibitor (E. coli BAA-198 (TEM-26); inhibitor at 4 μg/mL)
>128 µg/mL: MIC of Piperacillin with inhibitor ([5]; inhibitor at 2 μg/mL) | MIC of Piperacillin with inhibitor ([5]; inhibitor at 4 μg/mL) | MIC of Piperacillin with inhibitor (E. coli BAA-199 (SHV-3); inhibitor at 1 μg/mL) | MIC of Piperacillin with inhibitor (E. coli BAA-199 (SHV-3); inhibitor at 2 μg/mL) | MIC of Piperacillin with inhibitor (E. coli BAA-199 (SHV-3); inhibitor at 4 μg/mL) | MIC of Piperacillin with inhibitor (E. coli BAA-200 (SHV-4); inhibitor at 1 μg/mL) | MIC of Piperacillin with inhibitor (E. coli BAA-200 (SHV-4); inhibitor at 2 μg/mL) | MIC of Piperacillin with inhibitor (E. coli BAA-200 (SHV-4); inhibitor at 4 μg/mL)
64 µg/mL: MIC of Imipenem in combination with BLI [4] | MIC of Piperacillin with inhibitor ([5]; inhibitor at 1 μg/mL)
only moderately active: Activity with imipenem against the KPC (2 & 3) producing strains, in words ([1]; summary of Table 2, all five strains)
32 µg/mL: MIC of Piperacillin with inhibitor ([6]; inhibitor at 2 μg/mL)
8 µg/mL: MIC of Imipenem in combination with BLI ([1]; BLI at 4 μg/mL) | MIC of Imipenem in combination with BLI ([1]; BLI at 16 μg/mL) | MIC of Imipenem in combination with BLI [2] | MIC of Imipenem in combination with BLI [3] | MIC of Piperacillin with inhibitor (E. coli BAA-197 (TEM-12); inhibitor at 2 μg/mL)
16 µg/mL: MIC of Imipenem in combination with BLI (E. coli Ecoli233 (KPC3); BLI at 4 μg/mL) | MIC of Imipenem in combination with BLI (E. coli Ecoli233 (KPC3); BLI at 16 μg/mL) | MIC of Piperacillin with inhibitor ([6]; inhibitor at 1 μg/mL) | MIC of Piperacillin with inhibitor ([6]; inhibitor at 4 μg/mL)

C[C@@H](O)[C@H]1C(=O)N2C(C(=O)O)=C(S[C@@H]3CN[C@H](CNS(N)(=O)=O)C3)[C@H](C)[C@H]12 [Doripenem]
5.4E+06-2.6E+07 CFU/thigh: Bacterial load (range), Doripenem alone [8]
14.1 mg/kg: ED50 [7]
